Data from patent US20100003287A1, “Compositions and Methods Relating to Treatment of Cancer and Infectious Diseases” (THE PROVOST, FELLOWS AND SCHOLARS OF THE COLL. OF THE HOLY …, priority 2005, published 2010).

Experiments:
[1] = tested on: B16 tumour cells; experiment: Direct tumour therapy with CpG and Celecoxib; type: in vivo, C57BL/6 mice; conditions: CpG 20 μg, Celecoxib 500 μg or both s.c. at tumour site, days 3, 5 and 7
Description: C57BL/6 mice were challenged with 2×10^5 tumour cells s.c. and injected s.c. on days 3, 5 and 7 with either CpG (10 or 20 μg), the Cox-2 inhibitor Celecoxib (100 or 500 μg) or a combination of both at the tumour site. Mice were routinely monitored for tumour growth and survival. Tumour size was measured in two dimensions by callipers and determined by the following formula: (width^2×length)×π/6 where width is the lesser value. Mice were killed when tumour a length measured greater than 15 mm.
Mice were routinely monitored for tumour growth (FIG. 19).
Tumour volumes were routinely monitored (FIG. 20).
C57BL/6 mice were challenged with 2×10^5 tumour cells s.c. and injected s.c. on days 3, 5 and 7 with either CpG (20 μg), the Cox-2 inhibitor Celecoxib (500 μg) or a combination of both at the tumour site. Mice were routinely monitored for tumours and survival (FIG. 21).

[2] = tested on: IFN-gamma- and IL-10-secreting T cells; experiment: DC transfer experiment (KLH, CpG and inhibitors), T cell responses in vivo; parameters: species or system C57BL/6 mice; conditions: DC with KLH 5 μg, CpG 5 μg and inhibitors (NS-398 5 μM, SB203580 1 μM, U0126 5 μM) into footpad; day 5 cells restimulated with KLH
Description: 2.5×10^5 treated cells were injected into each footpad. Popliteal lymph nodes and spleens were removed after 5 days, and single cell suspensions were restimulated with KLH (2, 10, 50 μg/ml). S/N were removed after 3 days, and aliquots were measured for IFN-gamma and IL-10 by ELISA.
2.5×10^5 treated cells were injected into each footpad of 57BL-6 mice. Popliteal lymph nodes and spleens were removed after 5 days, and single cell suspensions were restimulated with KLH (2, 10, 50 μg/ml). Supernatants were removed after 3 days, and IFN-gamma and IL-10 concentrations quantified by ELISA (FIG. 13).

[3] = tested on: bone marrow-derived DC; experiment: CpG-stimulated DC with Cox-2 inhibitor NS-398, cytokine ELISA; type: cell-based, C57BL/6 mice
Description: (§1) Bone-marrow derived immature DC (BMDC) were generated by cultivation of extracted bone marrow cells with GM-CSF (40 ng/ml) for 10 days. BMDC from either BALB/c or C57BL/6 mice were incubated with 1 ng/ml-10 μg/ml of the TLR agonists, Pam3CSK4, Zymosan, LPS, Flagellin, PolylC, CpG-OCDN or medium only.

[4] = tested on: bone marrow-derived DC; experiment: CpG-stimulated DC with Cox-2 inhibitor NS-398, cytokine mRNA RT-PCR; type: cell-based, C57BL/6 mice
[5] = tested on: CD80 on CD11c+ DC; experiment: CD80 expression on DC (cytofluorometric analysis); type: cell-based; conditions: HSP70 vaccine 5 mg/ml, NS398 5 mM, 24 hours, gated on CD11c+
Description: Bone marrow derived DC were incubated with medium only (Control), HSP70 vaccine (5 mg/ml), the Cox-2 inhibitor NS398 (5 mM), HSP70 and Cox-2 inhibitor or LPS (10 ng/ml). After 24 hours cells were labelled with anti-CD80 and CD11C antibodies and cytofluorometric analysis performed. Results represent mean fluorescence intensity (MFI) on cells that were gated on the CD11c+ DC population (FIG. 24).

[6] = tested on: PGE2 production by dendritic cells; experiment: TLR agonist induced PGE2 production by DC (ELISA); type: cell-based; conditions: 24 hours
Description: Bone marrow-derived dendritic cells (DC) were stimulated in vitro with CpG (5 μg) or the ERK inhibitor, U0126 (5 μM), or both for 24 hours. Supernatants were removed and PGE2 concentrations determined by ELISA. **p<0.01 CpG+p38 inhibitor versus CpG by ANOVA (FIG. 25).
Bone marrow-derived DC were stimulated with CpG (5 μg) alone or in the presence of the Cox-2 inhibitor, NS-398. After 24 hours, supernatants were removed and concentrations of PGE2 (FIG. 26(a)) were determined by ELISA. *p<0.05 CpG+p38 inhibitor versus CpG by ANOVA.
Supernatants were removed and PGE2 concentrations determined by ELISA. *p<0.05 CpG+p38 inhibitor versus CpG by ANOVA (FIG. 27).

[7] = tested on: CD4+ T cells from D011.10 OVA-TCR Tg mice; experiment: In vitro activation of OVA-TCR T cells with modulated DC; type: cell-based, BALB/c mice; conditions: DC pulsed with OVA peptide 5 μg, CpG 10 μg alone or with SB203580 1 or 5 μM, 24 h; T cells:DC 10:1
Description: DC from BALB/c were incubated with OVA Class II peptide (5 μg). […] D011.10 OVA-TCR T cells were then added to the BMDC (10:1). Supernatants were removed after 3 and 11 days, and aliquots were measured for IL-10-and IFN-gamma by ELISA.
Bone marrow-derived DC from BALB/c were incubated with OVA Class II peptide (5 μg). […] Purified CD4+ T cells from D011.10 OVA-TCR Tg mice were stimulated with the DC (10:1) and supernatants were removed 3 days after antigen stimulation and IL-10 and IFNgamma quantified by ELISA (FIG. 12).

[8] = tested on: bone marrow-derived DC; experiment: Cytokines from DC treated with B16 tumour vaccine, CpG and p38 inhibitor (ELISA); type: cell-based; conditions: DC with heat shocked and irradiated B16 cells 4 hours, CpG 5 μg, SB 203580 5 μM, 24 hours
Description: Supernatants were removed after 24 hours and IL-10, IL-12p40, IL-12p70 and IL-23 concentrations were determined by ELISA. *p<0.05; ***p<0.0001, CpG+p38 inhibitor versus GpG by ANOVA.

[9] = tested on: B16 tumour cells; experiment: Therapeutic DC vaccine pulsed with B16 cells with or without CpG and p38 inhibitor; type: in vivo, C57BL/6 mice; conditions: for protective efficacy of tumour vaccine (tumour volumes): 5×10^5 DC days 3, 10 and 17
Source text: Tumour growth was routinely monitored. Results represent tumour volumes for individual mice (FIG. 29).
Tumour growth was routinely monitored. Results represent tumour volumes for individual mice (FIG. 30).
Mice were routinely monitored for survival. Numbers in parentheses represent statistical difference versus control group (FIG. 31).

[10] = tested on: Bordetella pertussis; experiment: Acellular pertussis vaccine, B. pertussis aerosol challenge, lung CFU counts; type: in vivo; conditions: mice, i.p. 0 and 4 weeks, 0.02 human dose vaccine, CpG 5 μg, SB203580 50 μM; aerosol challenge 2 weeks later
[11] = tested on: spleen mononuclear cells; experiment: Spleen cell IFN-gamma and IL-10 after acellular pertussis vaccination; type: in vivo, mice; conditions: added to acellular pertussis vaccine with CpG 5 μg, SB203580 50 μM
[12] = tested on: IL-1 beta in lungs; experiment: Lung IL-1 beta after B. pertussis challenge of immunized mice; type: in vivo; conditions: added to acellular pertussis vaccine with CpG 5 μg; SB203580 50 μM; 4 hours after challenge
[13] = tested on: bone marrow-derived DC; conditions: for IL-10 production from CpG-ODN- or LPS-stimulated DC: inhibitor 1 h (U0126 1.25-5 μM, SB203580 0.1-10 μM) before CpG-ODN 5 μg/ml or LPS 100 ng/ml, 24 h; for IL-12p70 production from TLR ligand-stimulated DC: inhibitor pre-incubation, LPS or CpG-ODN
Description: as §1
DC were pre-incubated for 1 h with the MEK 1/2 inhibitor (U0126) and then incubated for 15 min with medium only or with Pam3Cys, Zymosan, LPS, Flagellin, or CpG-ODN (1 or 5 μg/ml). […] DC were stimulated with medium only (0) or for 0.5, 1, 2, 4, 8 or 12 h with LPS (100 ng/ml). […] Cells treated with DMSO were used as negative controls.
Superntants were removed, and aliquots was measured for IL-10, IL-12p70 and IL-6 by ELISA (FIG. 11).

[14] = tested on: ERK; type: cell-based, mice
Description: In certain experiments, the ERK or p38 inhibitors were added 1 hr before the TLR ligands. Cell lysates were resolved by SDS-PAGE, transferred to nitrocellulose membranes and blotted with antibodies specific for phospho-p38 (pp38; Cell Signal Technology, Mass., USA), or phospho-ERK (pERK; Santa Cruz Biotechnologies, USA) and a horseradish peroxidase-linked secondary antibody. The nitrocellulose was stripped and probed with antibodies specific for total p38 or total ERK.

[15] = tested on: immature bone marrow-derived DC; experiment: DC activation by TLR ligands, cytokine ELISA; conditions: 1 ng/ml-10 μg/ml TLR ligand, 24 h
Description: After 24 h, supernatants were removed and IL-10, IL-12p40 and IL-12p70 concentrations determined by ELISA. NT, not tested (FIG. 9).

[16] = tested on: draining lymph node cells; experiment: Immunisation with KLH and TLR ligands, antigen-specific cytokine production by lymph node cells (ELISA); type: in vivo, BALB/c mice; conditions: s.c. KLH 5 μg alone or with adjuvant; lymph node cells day 7, KLH 50 μg/ml, 3 days
[17] = CpG 10 μg alone or with various concentrations of NS-398, 24 h
[18] = CpG 10 μg alone or with NS-398 1 or 10 μM, 24 h
[19] = CpG 5 μg with inhibitor (U0126 5 μM or NS-398)

## Cc1ccc(-c2cc(C(F)(F)F)nn2-c2ccc(S(N)(=O)=O)cc2)cc1 [Celecoxib]
[1]
  mice survived: 20%

## CS(=O)(=O)Nc1ccc([N+](=O)[O-])cc1OC1CCCCC1 [NS-398]
[2]
  induction of IFN-gamma-secreting T cells (Th1) in vivo: enhanced
  induction of IL-10 secreting T cells in vivo: suppressing
[3]; CpG 5 μg with NS-398, 24 h
  CpG-induced IL-10 production by dendritic cells: reverses
[3]; [17]
  IL-10 production by DC: suppressed
  IL-12p40 (IL-12) production by DC: enhanced
[4]; [18]
  IL-12p35 mRNA expression in DC: enhanced
  IL-12p40 mRNA expression in DC: enhanced
[4]; [17]
  IL-27p28 mRNA expression in DC: enhanced
[4]; CpG 10 μg with NS-398, 24 h
  CpG-induced IL-10 mRNA expression in DC: suppressed
[5]
  CD80 expression (mean fluorescence intensity): neither Cox-2 nor HSP70 alone enhanced
[6]; [19]
  CpG-induced PGE2 production by dendritic cells: reverses

## C[S+]([O-])c1ccc(-c2nc(-c3ccncc3)c(-c3ccc(F)cc3)[nH]2)cc1 (stereo not shown) [SB203580]
[7]
  induction of IFN-gamma-secreting T cells: enhanced
  induction of IL-10 secreting T cells: suppressed
[2]
  induction of IFN-gamma-secreting T cells (Th1) in vivo: enhanced
  induction of IL-10 secreting T cells in vivo: suppressing
[6]; DC treated with heat shocked and irradiated B16 cells 4 hours, CpG 5 μg, SB 203580 5 μM
  CpG-induced PGE2 production by dendritic cells: reverses
[8]
  CpG-induced IL-10 production by dendritic cells: reverses
  IL-12 production by dendritic cells: enhancing
  IL-23 production: not affected
[9]; DC activated with killed whole B16 cells alone or with CpG 5 μg, SB 203580 5 μM, days 3, 10 and 17
  survival of mice: enhances survival
[9]; DC activated with killed whole B16 cells and CpG 5 μg, SB203580 5 μM
  protective efficacy of tumour vaccine (tumour volumes): enhances
[9]; DC activated with killed whole B16 cells, SB 203580 5 μM
  protective efficacy of tumour vaccine (tumour volumes): enhances
[10]
  protective efficacy against B. pertussis challenge: significantly enhances
[11]
  IFN-gamma responses: enhanced
  IL-10 responses: reduced
[12]
  local IL-1 beta in the lungs: enhanced
[13]
  IL-10 production from CpG-ODN- or LPS-stimulated DC: inhibited
  IL-12p70 production from TLR ligand-stimulated DC: enhanced

## N#CC(=C(/N)Sc1ccccc1N)/C(C#N)=C(\N)Sc1ccccc1N [U0126]
[14]
  TLR-ligand induced ERK phosphorylation: inhibited
[2]
  induction of IFN-gamma-secreting T cells (Th1) in vivo: suppressed
  induction of IL-10 secreting T cells in vivo: suppressed
[6]; [19]
  CpG-induced PGE2 production by dendritic cells: reverses
[13]; data not shown
  enhancement of IL-12p70 production in DC from IL-10−/− mice: retained
[13]
  IL-10 production from CpG-ODN- or LPS-stimulated DC: suppressed
  IL-12p70 production from TLR ligand-stimulated DC: enhanced

## Flagellin
[15]
  IL-10 production from DC: induced production
  IL-12p40 production from DC: induced production
  IL-12p70 production from DC: induced production

## Pam3CSK4
[15]
  IL-10 production from DC: induced production
  IL-12p40 production from DC: induced production
  IL-12p70 production from DC: induced production

## lipopolysaccharide [LPS]
[16]
  KLH-specific IFN-gamma production: high concentrations
  KLH-specific IL-4 production: low or undetectable
[15]
  IL-10 production from DC: induced production
  IL-12p40 production from DC: induced production
  IL-12p70 production from DC: induced production
[14]; LPS 100 ng/ml, 0.5-12 h
  time for which LPS-induced ERK phosphorylation was still evident: up to 8 hours
  time of maximal LPS-induced ERK phosphorylation: 30 min
